For one assay, the system named is C. elegans. The assay can be described thus: Fatty acid uptake assay after overnight compound incubation (activation of FATPs), C4-BODIPY-C9 probe. The format is in vivo. The method, then: A fixed amount of probe is then distributed in the microtiter wells. The nematodes are incubated for one hour at room temperature in presence or absence of molecules to be tested. The microtiter plate is rinsed 3 to 4 times, using a standard plate washer (Wellwash, Labsystems, Zellik, Belgium), taking care to perform the aspiration sufficiently distant from the bottom of the well to avoid any loss of nematodes remaining at the bottom. The fluorescence intensity is then measured using a fluorescence microtiter plate reader, using a standard set of fluorescein filters.
Retinoic acid and troglutazones are activators of RXR and PPARγ respectively. C. elegans worms were incubated with these compounds in a range from 100 μM to 0.1 μM for a time period between 1 to 6 hours. Fatty acid uptake was measured using the microtiter plate assay described above.
More particularly, constitutive pharynx pumping worms in late L4 stage or young adults were incubated overnight on agar plates with different concentrations of the retinoic acid or troglutazone (e.g. Rosiglitazon). The compounds were added as solutions in 1 ml M9. After overnight incubation, these worms were further incubated for 1 h with 50 μM C4-BODIPY-C9 in 1 ml M9 on the same agar plates. After incubation the worms were washed three times and dispensed with the worm dispenser, up to 50 worms per well in the multi-well plates. Fluorescence intensity was measured using a microtiter plate reader, as described above.

Assay [1] deals with wild type (N2) C. elegans. The assay can be described thus: Lipid uptake assay with quenched probe (QBFA) in liquid culture after overnight compound incubation on agar plates. Particulars: L4 stage worms, about 16 h with various concentrations; 10 μM QBFA, fluorescence read after 2 hours; FIG. 21. The format is in vivo. The procedure:
Standard 9 cm agar plates were seeded with E. coli (any strain suitable for use in culture of C. elegans may be used). 1 ml volume of rosiglitazone at various concentrations was added to the plates and the plates seeded with L4 stage C. elegans. After an overnight incubation (approximately 16 h), the C. elegans were isolated and washed three times with approximately 15 ml M9 buffer. The worms were then re-suspended into microtiter plates, at 100 worms per well. Quenched probe (QBFA) was added at a final concentration of 10 μM in a total volume of 100 μl. Fluorescence measurements were taken after 2 hours in an automated plate reader. Typical results are illustrated in FIG. 21.

In the case of `CN(CCOc1ccc(CC2SC(=O)NC2=O)cc1)c1ccccn1` (stereo not shown) [Rosiglitazon], in the assay on C. elegans (constitutive pharynx pumping worms, late L4/young adults, overnight incubation with compound on agar plates, 1 h with 50 μM C4-BODIPY-C9, FIG. 8), the “increase in fatty acid uptake” value was 5 fold. The “increase in fatty acid uptake, also observed at low concentration” value in the assay on C. elegans (only 3 μM of Rosiglitazon applied, otherwise as E1) is 5 fold. In addition, the “effect on lipid uptake (in words)” value in assay [1] is listed as “have an effect on lipid uptake”.
For the compound troglutazone, the “effect on fatty acid uptake (in words)” value in the assay on C. elegans (increased expression of FATP by applying the compound) is reported as “clearly enhanced fatty acid uptake”.

The values above are taken from US6703214B2, “Lipid uptake assays” (Devgen NV, priority 2000, dated 2004).
